pIC50: −log10 of the molar value.
Legend:
OATP1B3 [1] = target: T1, OATP1B3 (Homo sapiens, UniProt Q9NPD5); assay: concentration-dependent uptake in HEK293T cells, LC-MS; format: cell-based
T1 construct: gene SLCO1B3; stably expressed in HEK293T cells (Shanghai Genechem), sodium butyrate induced
T1 sequence (Q9NPD5 1-702): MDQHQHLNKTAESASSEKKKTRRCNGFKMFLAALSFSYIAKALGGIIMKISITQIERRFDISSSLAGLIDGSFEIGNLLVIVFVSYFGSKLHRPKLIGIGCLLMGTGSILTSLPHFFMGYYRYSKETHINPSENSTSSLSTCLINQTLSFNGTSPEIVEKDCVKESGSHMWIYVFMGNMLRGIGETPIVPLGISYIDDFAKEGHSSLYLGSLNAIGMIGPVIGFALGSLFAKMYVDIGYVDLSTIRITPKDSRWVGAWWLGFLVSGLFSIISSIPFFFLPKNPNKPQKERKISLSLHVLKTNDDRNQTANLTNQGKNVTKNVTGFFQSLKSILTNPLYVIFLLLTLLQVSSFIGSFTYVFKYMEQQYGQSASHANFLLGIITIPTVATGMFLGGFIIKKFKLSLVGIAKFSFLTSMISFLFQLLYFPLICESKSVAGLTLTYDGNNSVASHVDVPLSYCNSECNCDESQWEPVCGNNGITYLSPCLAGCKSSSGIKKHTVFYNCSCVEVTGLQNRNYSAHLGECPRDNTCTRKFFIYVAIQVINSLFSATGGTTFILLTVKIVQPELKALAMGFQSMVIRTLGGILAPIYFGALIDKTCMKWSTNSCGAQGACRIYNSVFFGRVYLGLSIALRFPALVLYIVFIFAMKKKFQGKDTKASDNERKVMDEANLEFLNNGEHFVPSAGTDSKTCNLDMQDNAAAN
Text: concentration-dependent uptake in HEK293T cells, LC-MS on OATP1B3 | uptake process of OPD for OATP1B3 followed a typical Michaelis-Menten equation

OATP1B3 [2] = target: T1, OATP1B3; assay: inhibition of ophiopogonin D uptake in HEK293T cells, LC-MS; format: cell-based
Text: inhibition of ophiopogonin D uptake in HEK293T cells, LC-MS on OATP1B3

Row | Compound | Km (OATP1B3 [1]) [µM] | pIC50 (OATP1B3 [2])
1 | C[C@@H]1CC[C@@]2(OC1)O[C@H]1C[C@H]3[C@@H]4CC=C5C[C@@H](O)C[C@@H](O[C@@H]6O[C@H](C)[C@H](O)[C@H](O[C@@H]7OC[C@@H](O)[C@H](O)[C@H]7O)[C@H]6O[C@@H]6O[C@@H](C)[C@H](O)[C@@H](O)[C@H]6O)[C@]5(C)[C@H]4CC[C@]3(C)[C@H]1[C@@H]2C [Ophiopogonin D] | 11.3 | 
2 | CC(C)=CCC[C@](C)(O[C@@H]1O[C@H](CO)[C@@H](O)[C@H](O)[C@H]1O)[C@H]1CC[C@]2(C)[C@@H]1[C@H](O)C[C@@H]1[C@@]3(C)CC[C@H](O[C@@H]4O[C@H](CO)[C@@H](O)[C@H](O)[C@H]4O[C@@H]4O[C@H](CO)[C@@H](O)[C@H](O)[C@H]4O)C(C)(C)[C@@H]3CC[C@]12C [ginsenoside Rd] |  | 6.49
3 | CC(C)=CCC[C@](C)(O[C@@H]1O[C@H](CO[C@@H]2O[C@H](CO)[C@@H](O)[C@H](O)[C@H]2O)[C@@H](O)[C@H](O)[C@H]1O)[C@H]1CC[C@]2(C)[C@@H]1[C@H](O)C[C@@H]1[C@@]3(C)CC[C@H](O[C@@H]4O[C@H](CO)[C@@H](O)[C@H](O)[C@H]4O[C@@H]4O[C@H](CO)[C@@H](O)[C@H](O)[C@H]4O)C(C)(C)[C@@H]3CC[C@]12C [ginsenoside Rb1] |  | 6.24

— publication PMC6113708, “Ginsenoside Rb1 and Rd Remarkably Inhibited the Hepatic Uptake of Ophiopogonin D in Shenmai Injection Mediated by OATPs/oatps” (Frontiers in Pharmacology, 2018)
